Assays:
[1] = Viscosity of the mixed composition (Brookfield digital viscometer); type: physicochemical; conditions: for Viscosity of the mixed composition: acid replacing citric acid in activated flux of Example 1, relative scale; for Viscosity trend versus composition without stabilizing agent: time following mixing
[2] = Stability / pot life of the mixed composition held at room temperature; conditions: in fluxing component of the two-component composition
Protocol: The two components were mixed at a proportion of 3.6:1 (by weight). The mixed composition was held at room temperature and its viscosity was measured hourly by Brookfield digital viscometer. Following each viscosity measurement, a line was printed on a glass substrate, the line being 50 mm long, 2 mm wide, and 40 μm thick. The printed ink was then sintered in a forced-air oven at 150° C. and the resistance of the obtained printed line was measured.

Row | Viscosity of the mixed composition [1] | SMILES | further results
1 | 1 | O=C(O)/C=C/C(=O)O [Fumaric, fumaric acid] | 
2 | 1 | O=C(O)C(=O)O [Oxalic, Oxalic acid] | Viscosity behaviour at room temperature following mixing [1]: increased within a few minutes such that it was not suitable for printing

The remaining lines, values behind:

Row | SMILES | Viscosity of the mixed composition [1] | further results
3 | CC(=O)O [Acetic, acetic acid] | 5 | 
4 | O=C(O)/C=C\C(=O)O [Maleic, maleic acid] | 5 | 
5 | CCCCCCCCCCCCS [dodecanethiol] |  | Viscosity trend versus composition without stabilizing agent [1]: smaller viscosity increase
6 | CCCCCCCCS [octanethiol] |  | Viscosity trend versus composition without stabilizing agent [1]: smaller viscosity increase; Effect of the stabilizing agent on pot life [2]: extend the pot life
7 | O=C(O)C(O)C(O)C(=O)O (stereo not shown) [Tartaric, tartaric acid] | 5 | 
8 | NC(N)=S [thiourea] |  | Effect of the stabilizing agent on pot life [2]: extending the pot life
